Assay results published in ChEMBL document CHEMBL5053512, “Discovery and Preclinical Pharmacology of an Oral Bromodomain and Extra-Terminal (BET) Inhibitor Using Scaffold-Hopping and Structure-Guided Drug Design” (J Med Chem, 2021).

Key:
[1] = Inhibition of c-MYC expression in human JJN3R cells measured after 4 hrs; format: functional, cell-based; details: JJN-3R
[2] = Metabolic stability in human liver microsomes assessed as parent compound remaining at 0.5 uM after 10 mins; format: ADME, Microsome; details: read-out: Stability
[3] = Permeability coefficient of the compound by PAMPA; format: ADME; details: read-out: permeability
[4] = Permeability coefficient across apical to basolateral side in human Caco-2 cells; format: ADME, cell-based; details: read-out: permeability
[5] = Permeability coefficient across basolateral to apical side in human Caco-2 cells; format: ADME, cell-based; details: read-out: permeability
[6] = molecular target: Bromodomain-containing protein 2 (Homo sapiens, UniProt P25440); assay: Inhibition of human BRD2 measured by TR-FRET assay
Sequence of Bromodomain-containing protein 2 (P25440 whole entry): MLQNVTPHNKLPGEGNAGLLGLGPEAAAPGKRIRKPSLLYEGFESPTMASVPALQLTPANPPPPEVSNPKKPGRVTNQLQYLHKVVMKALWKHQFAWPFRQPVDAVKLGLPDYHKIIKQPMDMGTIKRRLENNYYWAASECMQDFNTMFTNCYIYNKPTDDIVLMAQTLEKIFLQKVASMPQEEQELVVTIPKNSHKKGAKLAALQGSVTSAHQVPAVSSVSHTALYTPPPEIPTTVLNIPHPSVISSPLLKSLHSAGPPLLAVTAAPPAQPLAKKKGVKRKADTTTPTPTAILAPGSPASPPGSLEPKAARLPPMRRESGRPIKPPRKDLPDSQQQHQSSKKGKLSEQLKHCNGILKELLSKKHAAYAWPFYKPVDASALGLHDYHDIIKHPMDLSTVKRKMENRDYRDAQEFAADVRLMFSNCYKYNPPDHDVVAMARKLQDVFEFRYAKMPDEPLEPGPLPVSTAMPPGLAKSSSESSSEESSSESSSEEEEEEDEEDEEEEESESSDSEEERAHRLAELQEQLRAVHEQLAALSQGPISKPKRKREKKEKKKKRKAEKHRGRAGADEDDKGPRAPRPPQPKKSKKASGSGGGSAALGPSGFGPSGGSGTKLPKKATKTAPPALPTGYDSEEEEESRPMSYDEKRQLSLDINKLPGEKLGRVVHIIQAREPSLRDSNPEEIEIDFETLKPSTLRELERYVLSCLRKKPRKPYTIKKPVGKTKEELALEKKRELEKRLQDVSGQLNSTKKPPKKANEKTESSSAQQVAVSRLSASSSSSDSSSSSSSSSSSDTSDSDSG

[7] = molecular target: Bromodomain-containing protein 3 (Homo sapiens, UniProt Q15059); assay: Inhibition of human BRD3 measured by TR-FRET assay
Sequence of Bromodomain-containing protein 3 (Q15059 whole entry): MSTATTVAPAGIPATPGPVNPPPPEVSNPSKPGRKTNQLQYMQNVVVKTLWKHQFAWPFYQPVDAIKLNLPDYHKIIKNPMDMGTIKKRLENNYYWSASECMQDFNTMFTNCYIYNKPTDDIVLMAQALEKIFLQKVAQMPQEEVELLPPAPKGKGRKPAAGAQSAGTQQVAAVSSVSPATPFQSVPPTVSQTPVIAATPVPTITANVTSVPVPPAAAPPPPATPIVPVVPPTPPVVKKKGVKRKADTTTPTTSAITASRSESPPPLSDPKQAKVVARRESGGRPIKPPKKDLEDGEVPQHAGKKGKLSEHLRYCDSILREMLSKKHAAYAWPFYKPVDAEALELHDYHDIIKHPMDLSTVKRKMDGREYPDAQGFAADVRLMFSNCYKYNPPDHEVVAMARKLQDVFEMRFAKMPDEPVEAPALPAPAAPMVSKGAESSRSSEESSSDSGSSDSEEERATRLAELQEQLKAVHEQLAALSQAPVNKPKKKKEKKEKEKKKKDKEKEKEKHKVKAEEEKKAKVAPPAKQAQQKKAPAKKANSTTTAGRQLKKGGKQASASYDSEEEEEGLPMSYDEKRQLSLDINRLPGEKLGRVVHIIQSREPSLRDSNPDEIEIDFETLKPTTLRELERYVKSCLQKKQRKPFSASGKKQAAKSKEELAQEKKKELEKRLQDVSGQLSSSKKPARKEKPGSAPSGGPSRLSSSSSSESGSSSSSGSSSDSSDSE

[8] = molecular target: Cytochrome P450 1A2 (Homo sapiens, UniProt P05177); assay: Inhibition of CYP1A2 (unknown origin); format: ADME
Sequence of Cytochrome P450 1A2 (P05177 whole entry): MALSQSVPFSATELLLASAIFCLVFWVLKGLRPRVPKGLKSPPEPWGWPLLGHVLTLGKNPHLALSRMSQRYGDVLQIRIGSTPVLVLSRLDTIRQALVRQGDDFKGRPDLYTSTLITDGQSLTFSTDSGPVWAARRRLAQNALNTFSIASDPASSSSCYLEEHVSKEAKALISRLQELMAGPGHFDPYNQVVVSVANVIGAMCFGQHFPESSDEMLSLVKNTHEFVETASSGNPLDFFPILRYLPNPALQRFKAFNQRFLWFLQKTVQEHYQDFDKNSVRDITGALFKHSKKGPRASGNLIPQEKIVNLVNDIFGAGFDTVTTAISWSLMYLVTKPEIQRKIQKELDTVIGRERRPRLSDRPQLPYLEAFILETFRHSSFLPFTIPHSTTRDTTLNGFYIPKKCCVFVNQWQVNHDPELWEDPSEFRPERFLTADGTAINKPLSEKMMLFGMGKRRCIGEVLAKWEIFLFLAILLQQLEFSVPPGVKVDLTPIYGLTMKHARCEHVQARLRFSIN

[9] = molecular target: Cytochrome P450 3A4 (Homo sapiens, UniProt P08684); assay: Inhibition of CYP3A4 (unknown origin); format: ADME
Sequence of Cytochrome P450 3A4 (P08684 whole entry): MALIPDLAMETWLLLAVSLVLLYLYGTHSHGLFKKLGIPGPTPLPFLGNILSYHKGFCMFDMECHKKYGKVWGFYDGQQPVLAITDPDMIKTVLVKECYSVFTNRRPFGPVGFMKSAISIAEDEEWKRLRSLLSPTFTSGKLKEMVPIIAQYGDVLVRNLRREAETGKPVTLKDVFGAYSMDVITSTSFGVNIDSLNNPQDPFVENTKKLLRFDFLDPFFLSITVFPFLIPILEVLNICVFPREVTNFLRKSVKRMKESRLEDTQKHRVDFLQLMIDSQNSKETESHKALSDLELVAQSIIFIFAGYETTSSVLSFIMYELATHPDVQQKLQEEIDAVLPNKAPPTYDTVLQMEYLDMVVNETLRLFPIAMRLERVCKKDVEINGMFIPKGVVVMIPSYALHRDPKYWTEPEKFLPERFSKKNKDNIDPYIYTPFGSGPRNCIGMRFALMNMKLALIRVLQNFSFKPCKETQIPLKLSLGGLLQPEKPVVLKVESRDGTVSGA

[10] = molecular target: T1, Voltage-gated inwardly rectifying potassium channel KCNH2 (Homo sapiens, UniProt Q12809); assay: Inhibition of human ERG by flux assay
T1 sequence (Q12809 whole entry): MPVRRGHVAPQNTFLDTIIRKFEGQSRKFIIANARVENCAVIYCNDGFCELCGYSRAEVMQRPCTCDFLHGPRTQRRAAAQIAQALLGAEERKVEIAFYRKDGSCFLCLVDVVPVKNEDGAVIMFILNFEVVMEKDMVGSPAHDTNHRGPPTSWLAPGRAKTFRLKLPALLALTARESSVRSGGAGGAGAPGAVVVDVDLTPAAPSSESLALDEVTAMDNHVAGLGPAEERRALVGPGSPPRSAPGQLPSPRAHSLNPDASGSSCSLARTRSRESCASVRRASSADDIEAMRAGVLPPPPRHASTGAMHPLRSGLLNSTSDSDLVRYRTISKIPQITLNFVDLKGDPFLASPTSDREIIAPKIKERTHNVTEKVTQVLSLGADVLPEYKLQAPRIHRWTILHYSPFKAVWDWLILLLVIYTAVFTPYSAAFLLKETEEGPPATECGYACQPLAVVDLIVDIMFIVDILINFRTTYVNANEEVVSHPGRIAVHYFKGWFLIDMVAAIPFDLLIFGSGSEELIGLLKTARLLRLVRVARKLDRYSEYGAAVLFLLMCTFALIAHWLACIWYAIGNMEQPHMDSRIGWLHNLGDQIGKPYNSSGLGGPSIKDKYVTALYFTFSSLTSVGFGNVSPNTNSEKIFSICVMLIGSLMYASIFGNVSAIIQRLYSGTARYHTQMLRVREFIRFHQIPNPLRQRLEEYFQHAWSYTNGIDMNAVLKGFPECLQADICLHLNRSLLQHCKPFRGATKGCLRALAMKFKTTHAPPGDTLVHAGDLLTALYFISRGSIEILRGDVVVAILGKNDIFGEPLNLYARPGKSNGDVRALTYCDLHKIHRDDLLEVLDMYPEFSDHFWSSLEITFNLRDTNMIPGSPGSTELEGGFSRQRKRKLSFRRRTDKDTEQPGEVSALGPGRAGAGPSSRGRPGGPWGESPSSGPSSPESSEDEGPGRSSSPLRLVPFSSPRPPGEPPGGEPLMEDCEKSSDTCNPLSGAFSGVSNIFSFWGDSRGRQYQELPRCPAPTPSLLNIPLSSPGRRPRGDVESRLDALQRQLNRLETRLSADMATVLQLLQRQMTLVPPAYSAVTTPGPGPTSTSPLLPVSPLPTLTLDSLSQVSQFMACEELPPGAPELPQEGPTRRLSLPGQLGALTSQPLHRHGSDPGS

[11] = molecular target: T1, Voltage-gated inwardly rectifying potassium channel KCNH2; assay: Inhibition of human ERG by patch-clamp assay
[12] = Oral bioavailability in mouse at 5 mg/kg; format: ADME, organism-based; details: in vivo
[13] = Oral bioavailability in monkey at 5 mg/kg; format: ADME, organism-based, Macaca mulatta; details: rhesus monkey, in vivo
[14] = Elimination half life in dog at 0.1 mg/kg, iv; format: ADME, organism-based, Canis lupus familiaris; details: in vivo, read-out: beta t1/2 (converted)
[15] = Elimination half life in monkey at 0.1 mg/kg, iv; format: ADME, organism-based, Macaca mulatta; details: rhesus monkey, in vivo, read-out: beta t1/2 (converted)
[16] = Total plasma clearance in mouse at 1.75 mg/kg, iv; format: ADME, organism-based
[17] = Volume of distribution at steady state in mouse at 1.75 mg/kg, iv; format: ADME, organism-based; details: in vivo, read-out: Vdss
[18] = Volume of distribution at steady state in dog at 0.1 mg/kg, iv; format: ADME, organism-based, Canis lupus familiaris; details: in vivo, read-out: Vdss
[19] = Anticancer activity against human HCC33 cells; format: functional, cell-based
[20] = tested on: NCI-H211; assay: Anticancer activity against human NCI-H211 cells; format: functional, cell-based
[21] = tested on: NCI-H146; assay: Anticancer activity against human NCI-H146 cells; format: functional, cell-based
[22] = tested on: NCI-H23; assay: Anticancer activity against human NCI-H23 cells; format: functional, cell-based
[23] = tested on: NCI-H441; assay: Anticancer activity against human NCI-H441 cells; format: functional, cell-based
[24] = tested on: NCI-H2228; assay: Anticancer activity against human […] cells; format: functional, cell-based
[25] = tested on: SK-LU-1; assay: Anticancer activity against human SK-LU-1 cells; format: functional, cell-based
[26] = tested on: NCI-H1623; assay: Anticancer activity against human NCI-H1623 cells; format: functional, cell-based
[27] = tested on: NCI-H1703; assay: Anticancer activity against human NCI-H1703 cells; format: functional, cell-based
[28] = tested on: NCI-H1792; assay: Anticancer activity against human NCI-H1792 cells; format: functional, cell-based
[29] = tested on: NCI-H2009; assay: Anticancer activity against human NCI-H2009 cells; format: functional, cell-based
[30] = tested on: NCI-H2030; assay: Anticancer activity against human NCI-H2030 cells; format: functional, cell-based
[31] = tested on: NCI-H520; assay: Anticancer activity against human NCI-H520 cells; format: functional, cell-based
[32] = tested on: SK-MES-1; assay: Anticancer activity against human SK-MES-1 cells; format: functional, cell-based
[33] = tested on: OCI-AML-3; assay: Anticancer activity against human OCI-AML3 cells; format: functional, cell-based
[34] = tested on: NCI-H211; assay: Anticlonogenic activity against human NCI-H211 cells; format: functional, cell-based
[35] = Antitumour activity against human LG0787F cells xenografted in NSG mouse assessed as tumour growth inhibition at 1 mg/kg/day, po bid; format: functional; details: read-out: TGI
[36] = AUC in human LG0787F cells xenografted in NSG mouse at 1 mg/kg/day, po bid; format: ADME, organism-based; design: dose 1 mg/kg/day, route po; details: in vivo
[37] = AUC in human LG0787F cells xenografted in NSG mouse at 1 mg/kg/day, po qd; format: ADME, organism-based; design: dose 1 mg/kg/day, route po; details: in vivo
[38] = Antitumour activity against human LG0787F cells xenografted in NSG mouse assessed as tumour growth inhibition at 0.25 mg/kg/day, po bid; format: functional; details: read-out: TGI
[39] = Antitumour activity against human LG0787F cells xenografted in po dosed NSG mouse assessed as minimum effective concentration; format: functional; details: dose 0.25 mg/kg/day
[40] = Drug concentration at steady state in human LG0787F cells xenografted in NSG mouse at 1 mg/kg/day infused continuously over 6 days using Alzet pump; format: ADME, organism-based; details: in vivo, 144 h, time 6 day
[41] = Antitumour activity against patient-derived human LG0787F cells xenografted in mouse model at 1.6 mg/kg, po bid, 5 days on and 2 days off for 2 weeks; format: functional; details: 120 h, time 5 day, read-out: TGI
[42] = Antitumour activity against patient-derived human PAT149 cells xenografted in mouse model at 1.6 mg/kg, po bid, 5 days on and 2 days off for 2 weeks; format: functional; details: PAT149, 120 h, time 5 day, read-out: TGI
[43] = Antitumour activity against patient-derived human PAT136 cells xenografted in mouse model at 1.6 mg/kg, po bid, 5 days on and 2 days off for 2 weeks; format: functional; details: PAT136, 120 h, time 5 day, read-out: TGI
[44] = Antitumour activity against patient-derived human BR1977F cells xenografted in mouse model at 1.6 mg/kg, po bid, 5 days on and 2 days off for 2 weeks; format: functional; details: 120 h, time 5 day, read-out: TGI
[45] = Antitumour activity against patient-derived human PAT121 cells xenografted in mouse model at 1.6 mg/kg, po bid, 5 days on and 2 days off for 2 weeks; format: functional; details: PAT121, 120 h, time 5 day, read-out: TGI
[46] = Antitumour activity against patient-derived human PAT130 cells xenografted in mouse model at 1.6 mg/kg, po bid, 5 days on and 2 days off for 2 weeks; format: functional; details: PAT130, 120 h, time 5 day, read-out: TGI
[47] = Antitumour activity against patient-derived human PAT138 cells xenografted in mouse model at 1.6 mg/kg, po bid, 5 days on and 2 days off for 2 weeks; format: functional; details: PAT138, 120 h, time 5 day, read-out: TGI
[48] = Antitumour activity against patient-derived human BR1367F cells xenografted in mouse model at 1.6 mg/kg, po bid, 5 days on and 2 days off for 2 weeks; format: functional; details: 120 h, time 5 day, read-out: TGI
[49] = Antitumour activity against patient-derived human LGO52.0F/Cis/R48 cells xenografted in mouse model at 1.6 mg/kg, po bid, 5 days on and 2 days off for 2 weeks; format: functional; details: LGO52.0F/Cis/R48, 120 h, time 5 day, read-out: TGI
[50] = Antitumour activity against patient-derived human PAT160 cells xenografted in mouse model at 1.6 mg/kg, po bid, 5 days on and 2 days off for 2 weeks; format: functional; details: PAT160, 120 h, time 5 day, read-out: TGI
[51] = molecular target: Histone acetyltransferase p300 (Homo sapiens) (UniProt Q09472)
Description: Binding affinity to EP300 (unknown origin) assessed as change in melting temperature of protein

Cc1nnn(C)c1-c1cnc2c3ccc(C(C)(C)O)cc3n([C@H](c3ccccc3)C3CCOCC3)c2c1 [EZOBRESIB]
IC50 [1]: 0.7 nM | remaining at 10 min, 0.5 µM [2]: 82% | Papp [3]: 66.1 ×10⁻⁶ cm/s | Papp A→B [4]: 13.3 ×10⁻⁶ cm/s | Papp B→A [5]: 34.7 ×10⁻⁶ cm/s | IC50 [6]: 1.4 nM | IC50 [7]: 1.1 nM | IC50 [8]: > 20 µM | IC50 [9]: > 20 µM | IC50 [10]: > 80 µM | IC50 [11]: 28 µM | bioavailability [12]: 100% | bioavailability [13]: 16% | half-life [14]: 336 min | half-life [15]: 120 min | clearance [16]: 12 mL/min/kg | Vd [17]: 1.9 L/kg | Vd [18]: 5.3 L/kg | IC50 [19]: 0.23 nM | IC50 [20]: 0.3 nM | IC50 [21]: 0.41 nM | IC50 [22]: 62 nM | IC50 [23]: 118 nM | IC50 [24]: 166 nM | IC50 [25]: 210 nM | IC50 [26]: > 500 nM | IC50 [27]: > 500 nM | IC50 [28]: > 500 nM | IC50 [29]: > 500 nM | IC50 [30]: > 500 nM | IC50 [31]: > 500 nM | IC50 [32]: > 500 nM | IC50 [33]: 0.7 nM | IC50 [34]: 5.6 nM | inhibition in vivo at 1 mg/kg/day [35]: 70% | AUC [36]: 0.47 µM·h | AUC [37]: 0.6 µM·h | inhibition in vivo at 0.25 mg/kg/day [38]: 46% | MEC [39]: 0.03 µM | Css [40]: 17 nM | inhibition in vivo at 1.6 mg/kg [41]: 110% | inhibition in vivo at 1.6 mg/kg [42]: 101% | inhibition in vivo at 1.6 mg/kg [43]: 92% | inhibition in vivo at 1.6 mg/kg [44]: 88% | inhibition in vivo at 1.6 mg/kg [45]: 85% | inhibition in vivo at 1.6 mg/kg [46]: 76% | inhibition in vivo at 1.6 mg/kg [47]: 75% | inhibition in vivo at 1.6 mg/kg [48]: 68% | inhibition in vivo at 1.6 mg/kg [49]: 50% | inhibition in vivo at 1.6 mg/kg [50]: 9% | ΔTm [51]: 9.5 °C
